# Earlier results in patent US20040038890A1, “Human voltage-gated potassium channel subunit” (priority 1998, published 2004).
# Assays:
# [1] = system: Kv2.1 and Kv2.1/rKv9.3 complexes; conditions: Kv2.1 compared with Kv2.1/rKv9.3
# [2] = system: potassium currents in rat pulmonary artery myocytes
# Kv2.1/rKv9.3 = Kv2.1/rKv9.3 (Rattus norvegicus, UniProt O88759+P15387); conditions: Kv2.1/rKv9.3 versus Kv2.1 alone, Xenopus oocytes
# Chain of Kv2.1/rKv9.3 (P15387 whole entry): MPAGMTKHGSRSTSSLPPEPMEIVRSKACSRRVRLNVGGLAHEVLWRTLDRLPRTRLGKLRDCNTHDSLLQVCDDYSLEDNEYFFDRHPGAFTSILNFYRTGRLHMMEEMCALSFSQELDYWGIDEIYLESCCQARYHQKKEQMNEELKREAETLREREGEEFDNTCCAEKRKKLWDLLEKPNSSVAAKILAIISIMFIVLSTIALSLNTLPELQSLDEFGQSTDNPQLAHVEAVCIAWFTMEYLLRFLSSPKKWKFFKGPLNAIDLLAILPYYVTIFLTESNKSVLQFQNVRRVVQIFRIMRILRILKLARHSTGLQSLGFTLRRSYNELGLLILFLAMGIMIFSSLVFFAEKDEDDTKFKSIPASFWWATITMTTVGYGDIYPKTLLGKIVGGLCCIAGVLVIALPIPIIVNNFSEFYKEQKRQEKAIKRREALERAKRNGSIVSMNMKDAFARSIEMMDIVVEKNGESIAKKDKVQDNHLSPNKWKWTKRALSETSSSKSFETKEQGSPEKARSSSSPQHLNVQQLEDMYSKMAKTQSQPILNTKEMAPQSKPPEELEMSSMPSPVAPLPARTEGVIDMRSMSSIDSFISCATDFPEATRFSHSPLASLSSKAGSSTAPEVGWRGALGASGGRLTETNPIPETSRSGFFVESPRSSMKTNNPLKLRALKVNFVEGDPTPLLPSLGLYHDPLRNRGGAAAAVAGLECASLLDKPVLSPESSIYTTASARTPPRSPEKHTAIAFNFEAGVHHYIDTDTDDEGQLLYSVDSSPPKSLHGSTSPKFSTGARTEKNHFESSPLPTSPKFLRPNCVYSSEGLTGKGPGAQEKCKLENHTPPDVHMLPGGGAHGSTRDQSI
# Chain of Kv2.1/rKv9.3 (O88759 whole entry): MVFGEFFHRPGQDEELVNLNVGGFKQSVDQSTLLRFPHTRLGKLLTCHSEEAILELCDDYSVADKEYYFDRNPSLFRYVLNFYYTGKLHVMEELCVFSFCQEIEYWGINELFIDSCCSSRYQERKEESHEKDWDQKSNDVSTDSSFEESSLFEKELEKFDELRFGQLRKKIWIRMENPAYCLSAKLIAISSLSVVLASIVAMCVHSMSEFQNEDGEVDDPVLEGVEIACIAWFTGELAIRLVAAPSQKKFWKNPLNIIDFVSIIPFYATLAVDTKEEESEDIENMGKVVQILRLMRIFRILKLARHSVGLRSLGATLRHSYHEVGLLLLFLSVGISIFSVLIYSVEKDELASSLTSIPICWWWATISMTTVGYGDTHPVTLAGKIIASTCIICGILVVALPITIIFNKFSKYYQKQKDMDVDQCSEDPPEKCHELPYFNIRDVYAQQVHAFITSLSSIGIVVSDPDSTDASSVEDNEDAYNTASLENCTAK
Compound,sensitivity of Kv2.1 and Kv2.1/rKv9.3 complexes [1],effect on potassium currents [2],decrease in sensitivity of Kv2.1 when co-expressed with rKv9.3 (Kv2.1/rKv9.3)
"CCN[C@@H](C)Cc1cccc(C(F)(F)F)c1 [DFF, dex-fenfluramine]",similarly sensitive,inhibit potassium currents,
"CC[N+](CC)(CC)CC.[Cl-] [TEA, tetraethylammonium chloride]",,,3 fold
aminorex fumarate,,inhibit potassium currents,
